Four compounds from US8231858B2, “Diagnostic imaging agents with MMP inhibitory activity” (GE Healthcare Limited, priority 2003, dated 2012) can be followed below.

SMILES strings stand for the structures.

What is called IC50 is the concentration that gives 50% inhibition. A low value points to greater potency. In general, melting point refers to the temperature of the solid-liquid transition.

The target of one data set is T1, MMP-2 (Homo sapiens, UniProt P08253).
T1 sequence (P08253 110-660): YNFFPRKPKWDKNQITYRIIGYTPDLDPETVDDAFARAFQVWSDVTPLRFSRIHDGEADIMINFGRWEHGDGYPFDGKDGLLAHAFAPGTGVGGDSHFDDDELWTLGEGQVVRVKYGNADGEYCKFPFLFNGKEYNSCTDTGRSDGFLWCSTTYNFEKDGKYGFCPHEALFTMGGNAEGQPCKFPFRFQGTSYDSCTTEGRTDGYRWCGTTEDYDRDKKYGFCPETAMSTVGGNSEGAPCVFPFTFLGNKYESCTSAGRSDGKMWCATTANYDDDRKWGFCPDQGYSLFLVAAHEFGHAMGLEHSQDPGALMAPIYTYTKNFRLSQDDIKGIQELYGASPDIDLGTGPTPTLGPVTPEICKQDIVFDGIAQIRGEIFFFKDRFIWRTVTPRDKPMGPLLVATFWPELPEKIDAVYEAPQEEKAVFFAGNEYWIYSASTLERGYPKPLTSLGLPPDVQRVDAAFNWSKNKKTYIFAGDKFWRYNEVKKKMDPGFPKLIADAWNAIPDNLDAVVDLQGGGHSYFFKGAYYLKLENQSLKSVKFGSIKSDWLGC
The experiment in a line: Assay for MMP-2 inhibitory activity (fluorogenic substrate). Conditions: MMP-2 1 nM, preincubation 37° C. for 30 min, pH 7.5. In kind it is biochemical. The method, then: (§1) The synthetic broad-spectrum fluorogenic substrate (7-methoxycoumarin-4-yl) acetyl pro-Leu-Gly-Leu-(3-(2,4-dinitrophenyl)-L-2,3-diamino-propionyl)-Ala-Arg-NH2 (R & D Systems) was used to assay MMP-2 and MMP-9 activity as described previously [Huang et al J. Biol. Chem. 272 22086-22091 (1997)]. […] An aliquot (10 μl) of substrate (5 μM) was then added to […] of preincubated MMP/compound mixture, and activity was determined at 37° C. by following product release with time. The fluorescence changes were monitored using a Fusion Universal Microplate Analyzer (Packard Bioscience) with excitation and emission wavelengths set to 330 and 390 nm, respectively for MMP-2 and MMP-9. Inhibited rates were measured from the initial 10 min of the reaction profile where product release was linear with time. Nonlinear regression analysis was performed using the XMGRACE 5.18 software under linux.

The target of another data set is MMP-9 (Homo sapiens, UniProt P14780). The experiment in a line: Assay for MMP-9 inhibitory activity (fluorogenic substrate). In kind it is biochemical. To be noted: MMP-9 2 nM, preincubation 37° C. for 30 min, pH 7.5. The method, then: as §1
MMP-9, sequence (P14780 94-707, species assumed): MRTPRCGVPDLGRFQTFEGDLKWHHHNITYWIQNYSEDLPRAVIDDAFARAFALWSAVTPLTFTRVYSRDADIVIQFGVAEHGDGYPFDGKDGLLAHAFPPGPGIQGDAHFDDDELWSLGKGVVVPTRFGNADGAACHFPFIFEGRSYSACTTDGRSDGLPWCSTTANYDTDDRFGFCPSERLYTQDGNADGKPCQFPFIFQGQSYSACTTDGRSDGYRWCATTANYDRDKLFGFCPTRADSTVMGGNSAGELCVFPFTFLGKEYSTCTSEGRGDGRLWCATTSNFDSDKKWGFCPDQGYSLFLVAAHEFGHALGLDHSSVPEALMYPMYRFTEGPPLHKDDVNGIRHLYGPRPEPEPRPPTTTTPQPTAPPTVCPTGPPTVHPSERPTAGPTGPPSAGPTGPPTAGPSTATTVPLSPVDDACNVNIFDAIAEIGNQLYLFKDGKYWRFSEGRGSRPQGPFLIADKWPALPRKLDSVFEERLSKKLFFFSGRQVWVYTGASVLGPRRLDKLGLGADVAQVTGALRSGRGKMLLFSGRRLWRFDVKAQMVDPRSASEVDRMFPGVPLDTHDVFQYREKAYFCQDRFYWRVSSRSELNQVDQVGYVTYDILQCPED

On to `CC(C)[C@H](C(=O)NO)N(Cc1cccnc1)S(=O)(=O)c1ccc(O)cc1` [Compound 13], for which the results for the IC50 on MMP-2 and against MMP-9 were 0.0575 µM and 0.257 µM, respectively.

Compound `CC(C)[C@H](C(=O)NO)N(Cc1cccnc1)S(=O)(=O)c1ccc(Br)cc1` [Compound 14] gave a melting point of 169 to 170 °C. The same compound came in with a half-inhibitory concentration (IC50) on MMP-2 of 0.0162 µM. This compound also yielded a concentration for half-maximal inhibition (IC50) on MMP-9 of 0.076 µM.

As to `CC(C)C(C(=O)NO)N(Cc1cccnc1)S(=O)(=O)c1ccc(I)cc1` (centres unmarked) [Compound 9], the melting point stood at 169 °C. Further, the midpoint of inhibition at MMP-2, the IC50, lay at 0.0025 µM. The compound further displayed an IC50 against MMP-9 of 0.0046 µM.

Compound `CC(C)[C@H](C(=O)NO)N(Cc1cccnc1)S(=O)(=O)c1ccc(O)c(I)c1` [Compound 8] gave a melting point of 201 to 203 °C. Also, the IC50 at MMP-2 came out at 0.32 µM. On MMP-9, this compound yielded a half-inhibitory concentration (IC50) of 0.153 µM.
